From PMC7254866 (ACS chemical biology, 2019)

Key:
Rh2GUS = Rh2GUS (Roseburia hominis, UniProt A0A395V8I7); assay: Inhibition of Rh2GUS; format: biochemical
[1] = test system: FpL2-6, H11G11, Rg3, and Rh2 GUS enzymes; assay: Catalytic efficiency across the four regorafenib-glucuronide processing enzymes; format: biochemical; conditions: 4-MUG versus regorafenib-glucuronide
G380M variant of FpL2-6 = assay: Regorafenib-glucuronide processing by G380M variant of FpL2-6; format: biochemical, Faecalibacterium prausnitzii
[2] = test system: gut microbial GUS enzymes in mouse fecal samples; format: in vitro ADME, mice (C57BL/6 and BALB/c)
[3] = test system: gut microbial GUS enzymes in human feces; format: in vitro ADME
[4] = test system: intestinal homogenate lysates (cecum, small intestine, large intestine); assay: Regorafenib-glucuronide conversion in intestinal homogenates of SPF mice; format: in vitro ADME, C57BL/6J mice
[5] = test system: cecum and cecal contents of germ-free mice; assay: Regorafenib-glucuronide conversion in ceca of germ-free mice; format: in vitro ADME, germ-free C57BL/6J mice; conditions: cecum and cecal contents of 5 GF mice, 48 h incubation
FpL2-6 = FpL2-6 (Faecalibacterium prausnitzii, UniProt D4K3H3); assay: Inhibition of FpL2-6 GUS; format: biochemical
(UniProt D5GU71) = assay: Inhibition of H11G11 GUS; format: biochemical, uncultured taxon
Sequence of (UniProt D5GU71) (D5GU71 1-754): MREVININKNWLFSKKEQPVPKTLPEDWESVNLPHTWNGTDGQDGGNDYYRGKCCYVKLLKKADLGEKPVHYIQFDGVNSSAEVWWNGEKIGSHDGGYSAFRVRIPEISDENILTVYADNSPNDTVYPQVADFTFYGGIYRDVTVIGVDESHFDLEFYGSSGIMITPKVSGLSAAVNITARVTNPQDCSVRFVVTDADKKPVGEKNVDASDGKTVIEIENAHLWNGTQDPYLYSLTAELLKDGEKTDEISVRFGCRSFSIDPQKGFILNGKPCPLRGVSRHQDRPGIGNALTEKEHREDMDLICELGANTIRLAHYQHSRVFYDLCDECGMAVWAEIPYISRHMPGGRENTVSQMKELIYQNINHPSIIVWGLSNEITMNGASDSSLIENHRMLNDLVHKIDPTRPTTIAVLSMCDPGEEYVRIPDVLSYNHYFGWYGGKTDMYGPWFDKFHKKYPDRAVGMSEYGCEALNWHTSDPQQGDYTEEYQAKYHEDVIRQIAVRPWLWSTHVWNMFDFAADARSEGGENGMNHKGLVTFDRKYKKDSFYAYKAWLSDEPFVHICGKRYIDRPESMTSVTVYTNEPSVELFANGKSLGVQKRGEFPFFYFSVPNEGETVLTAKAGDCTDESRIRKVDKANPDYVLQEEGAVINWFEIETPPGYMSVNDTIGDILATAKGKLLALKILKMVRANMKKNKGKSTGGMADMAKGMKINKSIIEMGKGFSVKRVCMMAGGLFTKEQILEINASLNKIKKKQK

Cc1c(-c2ccc(O)cc2)n(Cc2ccc(OCCN3CCCCCC3)cc2)c2ccc(O)cc12 [bazedoxifene]
potency (in words) (Rh2GUS; toward Rh2GUS): low micromolar

Cc1cc(=O)oc2cc(O[C@@H]3O[C@H](C(=O)O)[C@@H](O)[C@H](O)[C@H]3O)ccc12 [4-MUG, 4-methylumbelliferyl glucuronide]
rate relative to rates with regorafenib-glucuronide [1]: 10–100 times faster

regorafenib-glucuronide
increase in catalytic efficiency (G380M variant of FpL2-6; G380M variant versus FpL2-6 wild type): 40 fold | catalytic efficiency (G380M variant of FpL2-6; substrate regorafenib-glucuronide, G380M variant of FpL2-6): 4560 s⁻¹ M⁻¹ | conversion of regorafenib-glucuronide to regorafenib [2]: no conversion | regorafenib-glucuronide reactivation [3]: no regorafenib-glucuronide reactivation | regorafenib-glucuronide converted to regorafenib ([4]; cecal extracts of SPF mice, 48 h): almost all | conversion of regorafenib-glucuronide to regorafenib ([4]; small and large intestine homogenates, after 48 h): relatively little conversion | reactivation of regorafenib from regorafenib-glucuronide [5]: neither the cecum nor its contents were able to catalyze the reactivation

O=C(c1ccc(OCCN2CCCCC2)cc1)c1c(-c2ccc(O)cc2)sc2cc(O)ccc12 [raloxifene]
IC50 (FpL2-6): 78 ± 9 µM | IC50 ((UniProt D5GU71)): 100 ± 5 µM | IC50 (Rh2GUS): 13 ± 3 µM
